Values quoted from earlier work as cited in patent US7799530B2, “Genetic polymorphisms associated with cardiovascular disorders and drug response, methods of detection and uses thereof” (Celera Corporation, priority 2005, dated 2010).

What was measured:
[1] = test system: acute coronary events and LDL-C in subjects with average cholesterol levels; conditions: AFCAPS/TexCAPS; cited from earlier work
rhabdomyolysis = conditions: in vivo; cited from earlier work

For `CC[C@H](C)C(=O)O[C@H]1C[C@@H](C)C=C2C=C[C@H](C)[C@H](CC[C@@H]3C[C@@H](O)CC(=O)O3)[C@H]21` [lovastatin], the “LDL-C reduction (average)” value [1] is given as 25% and the decrease in events [1] is given as 37%.
In the case of `COCc1c(C(C)C)nc(C(C)C)c(/C=C/[C@@H](O)C[C@@H](O)CC(=O)O)c1-c1ccc(F)cc1` [cerevastatin], the rhabdomyolysis-related deaths (rhabdomyolysis) is given as “relatively high level of rhabdomyolysis-related deaths”.
